Values belong to the compound of their own block, whether it stands above or below them.
What was measured:
[1] = tested on: mammalian mononucleosomes from HEK293T cells; experiment: Protein and peptide pull downs with mammalian mononucleosomes; assay type: binding, human; conditions: mammalian mononucleosomes
Description: (§1) The flow through was removed, the immobilized bait was incubated with 1-2 μg of purified mammalian mono-nucleosomes from HEK293T cells, recombinant mono-nucleosomes (EpiCypher, 16-0006), recombinant H2AK119Ub mono-nucleosomes (EpiCypher, 16-0020) or recombinant protein for 3 hours at 4° C., and the beads were washed 3× with EB150 buffer and then eluted in 2×LDS with 200 mM DTT with heating at 95° C. for 5 minutes. The pull downs were then visualized by immunoblot analysis or colloidal blue staining.
Mammalian mononucleosomes were purified from HEK293T cells similar to as previously described (Mashtalir et al. (2014) Mol. Cell 54:392-406). Cells were scraped from plates, washed with cold PBS, and centrifuged at 5,000 rpm for 5 min at 4° C. Pellets were resuspended in hypotonic buffer (EBO: 50 mM Tris HCl, pH 7.5, 1 mM EDTA, 1 mM MgCl2, 0.1% NP40 supplemented with 1 mM DTT, 1 mM PMSF, and protease inhibitor cocktail (Roche, C756U27) and incubated for 5 min on ice. The suspension was centrifuged at 5,000 rpm for 5 min at 4° C., and pellets were resuspended in 5 volumes of EB420 (EBO: 50 mM Tris HCl, pH 7.5, 420 mM NaCl, 1 mM MgCl2, 0.1% NP40 with supplemented with 1 mM DTT and 1 mM PMSF containing protease inhibitor cocktail (Roche, C756U27). Homogenate incubated on rotator for 1 hour at 4° C. The supernatant was then centrifuged at 20,000 rpm (30,000×g) for 1 hour at 4° C. using a SW32Ti rotor. Supernatant was then discarded and chromatin pellet was washed in MNAse buffer (20 mM Tris-HCl pH 7.5, 100 mM KCl, 2 mM MgCl2, 1 mM CaCl2, […] sucrose, 0.1% NP-40, and protease inhibitor cocktail) three times. Following MNase treatment (3 U/mL for 30 min at room temperature, Sigma-Aldrich), the reaction was quenched with 5 mM of EGTA and 5 mM of EDTA. The samples were then centrifuged at 20,000×g for 1 hour at 4° C. to obtain the soluble chromatin fraction. Soluble chromatin fraction was loaded onto 10-30% glycerol gradient (Mashtalir et al. (2014) Mol. Cell 54:392-406) and fractions containing mononucleosomes were isolated and concentrated using centrifugal filter (Amicon, EMD Millipore).

[2] = tested on: nucleosome acidic patch; experiment: Detection of nucleosome acidic patch interactions by photocrosslinking; assay type: binding; conditions: diazirine probes in nucleosome acidic patch
Description: Briefly, diazirine-containing recombinant nucleosomes (0.5 uM) were incubated with biotinylated SSX peptides (12.5 uM) in binding buffer (20 mM HEPES, pH 7.9, 4 mM Tris, pH 7.5, 150 mM KCl, 10 mM MgCl2, 10% glycerol, and 0.02% (v/v) IGEPAL CA-630) at 30° C. for 30 mins, and cooled on ice for 5 mins. The reaction mixtures were then irradiated at 365 nm for 10 minutes. Reactions were then analyzed by western blotting employing IRDye® 800CW streptavidin on a LI-COR Odyssey® Infrared Imager. Additional details are found in Dao et al. (2019) Nat.

[3] = tested on: IMR90 fibroblasts; experiment: Peptide hybridization assay; assay type: cell-based; conditions: methanol-fixed IMR90 fibroblasts, co-stain H2A K119Ub
Description: IMR90 fibroblasts were grown on coverslips, washed with PBS and fixed using 100% ice-cold methanol for 3 minutes. Coverslips were then washed with IF wash buffer (PBS 0.1% NP40 1 mM Sodium azide) 3 times. Selected groups were treated with 200 ng/ml of recombinant USP2 catalytic domain (Boston biochem) for 1 hour. Coverslips were then washed 3 times with IF wash buffer and incubated with 2 μM of biotinylated peptides. Coverslips were subsequently washed 3 times with IF wash buffer and fixed in 3% PFA-PBS for 20 minutes. The rest of the procedure followed accordingly to standard IF protocol. In brief, following incubation with primary antibodies, the Anti-rabit Alexa Fluor® 594 and Streptavidin Alexa Fluor® 488 (Life Technologies) secondary antibodies/reagent were used for visualization of primary antibodies or biotinylated peptides. Staining with 4′,6-diamidino-2-phenylindole (DAPI) was used to visualize nuclei. Images were acquired using Zeiss Axio Imager Z2 microscope and images were processed using ImageJ program (NIH).

[4] = tested on: Barr bodies (inactive X); experiment: Immunofluorescence, Barr body localization; assay type: cell-based, human; conditions: 293T cells, versus DMSO control
Description: Immunofluorescent images were obtained as previously described (Daou et al. (2011) Pro. Nat. Acad. Sci. U.S.A 108:2747-2752). Following lentiviral infection and/or drug treatment, cells were prepared by fixation in 3% PFA-PBS and then were permeabilized with PBS 0.1% NP40. Following incubation with primary antibodies, the Anti-rabbit Alexa Fluor® 594 and Anti-mouse Alexa Fluor® 488 (Life Technologies) secondary antibodies were used for visualization. Staining with 4′,6-diamidino-2-phenylindole (DAPI) was used to visualize nuclei. Images were acquired using Zeiss Axio Imager Z2 microscope and images were processed using ImageJ program (NIH).

[5] = tested on: recombinant H2AK119Ub mono-nucleosomes; experiment: Pull downs with WT or H2A K119Ub nucleosomes; assay type: binding
Description: as §1

[6] = tested on: BAF complex components; experiment: anti-SMARCA4 (BRG1) IP mass spectrometry (Tables 7A-7C); assay type: cell-based, human; conditions: Aska-SS cells -/+ shSSX
Description: Peptide abundance normalized to SMARCA4 abundance. […] SMARCC1, SS18, GFP, SMARCB1, and TBP levels are shown. […] T indicates 0-40 min timecourse; n=3 experimental replicates at each time point; error bars represent standard deviation.
Nuclear extracts were quantified by Bradford assay and 150-200 μg of protein was incubated with 2 μg of antibody in Buffer EB300 (50 mM Tris pH 7.5, 0.1% NP-40, 1 mM EDTA, 1 mM MgCl2, […] with protease inhibitor (Roche, C756U27), 1 mM DTT and 1 mM phenylmethylsulfonyl fluoride (PMSF)) overnight at 4° C. Each sample was then incubated with Protein G Dynabeads® (Thermo Scientific) for 2-3 hours. Beads were washed three times with Buffer EB300 followed by elution with 20 μL of elution buffer (NuPage™ LDS buffer (2×) (Life Technologies) containing 100 mM DTT and water).

Compound: SSX aa155-188: N-terminally biotinylated peptide of the conserved 34aa region of SSX
nucleosome binding in pull-down [1]: sufficient for SSX nucleosome binding
histone-SSX crosslinks across the acidic patch [2]: most prominently at positions H2A E56 and H2B E113
labeling of Barr bodies by biotinylated peptide [3]: Clear labeling of Barr bodies

Compound: CCCc1cc(C)[nH]c(=O)c1CNC(=O)c1cc(-c2ccc(N3CCN(C(C)C)CC3)nc2)cc2c1cnn2C(C)C [EZH2 inhibitor, reference compound]
SS18-SSX foci localized to Barr bodies after treatment [4]: no change to SS18-SSX foci localized to Barr bodies

SSX binding to nucleosomes ([5]; WT or H2A K119Ub nucleosomes): not altering SSX binding to nucleosomes
Compound: mutation of the C-terminal acidic region of SSX to alanines: GST-SSX with acidic C-term DPEEDDE replaced by AAAAAAA (SGPKRGKHAWTHRLRERKQLVIYEEISAAAAAAA)
affinity to H2A K119Ub-decorated nucleosomes, pulldown ([5]; H3 immunoblot): relieved the preference of SSX for H2AK119Ub nucleosomes

Compound: BCL7C: BAF complex subunit quantified in the IP MS
Aska (shControl)/Aska (shSS18-SSX) LFQ Intensity (Norm to SMARCA4 Rep 1) ([6]; Rep 1): 1.744
Aska (shControl)/Aska (shSS18-SSX) LFQ Intensity (Norm to SMARCA4 Rep 2) ([6]; Rep 2): 1.537

Compound: SSX aa166-188: biotinylated 23-residue SSX peptide lacking the W164 residue
nucleosome binding in pull-down [1]: failed to do so

Reference: patent US20250283871A1, “COMPOSITIONS AND METHODS FOR MODULATING THE INTERACTION BETWEEN SS18-SSX FUSION ONCOPROTEIN AND NUCLEOSOMES” (Dana-Farber Cancer Institute, Inc., priority 2020, published 2025)
